# Test results taken from PubChem BioAssay AID1117344.
# Active and inactive are the calls of the source. How the calls were made is not given here.
# Test system: NCI-H716 cells, GLP-1 secretion
# Test: potency on glucagon-like peptide-1 release, NCI-H716 cell line, dose-response curve, half-maximal inhibitory concentration (AID 1117344)
row,Compound,IC50
1,CCCCCCCCCCCCCC[N+](C)(C)C,18.6 µM (inactive)
2,OCCN1CCN(CC/C=C2/c3ccccc3Sc3ccc(C(F)(F)F)cc32)CC1,32.2 µM (inactive)
3,CC(=O)[O][Hg][c]1ccccc1,9.57 µM (inactive)
4,Cc1ccc([N+](=O)[O-])[c]2c1[O][Hg]2,9.87 µM (inactive)
5,CCCCCCCCCCCC(=O)[O][Sn]([CH2]CCC)([CH2]CCC)[O]C(=O)CCCCCCCCCCC,> 40 µM (inactive)
